Test results reported in patent publication US20240131013A1, “TETRAHYDRO-1H-PYRIDO[3,4-b]INDOLE ANTI-ESTROGENIC DRUGS” (Olema Pharmaceuticals, Inc., priority 2015, published 2024).
“Also recorded” adds a separate entry of the source.

How the values were obtained:
[1] = test system: AP activity in ECC-1 cells; assay: Alkaline phosphatase (AP) assay in ECC-1 uterine cells co-treated with 500 pM E2, antagonist mode; assay type: cell-based, human; conditions: for AP Antagonist Act. (% of E2): ECC-1 cells, co-treated with 500 pM E2
Description: Method for performing the alkaline phosphatase (AP) assay. ECC-1 cells were trypsinized and resuspended in hormone-depleted media and plated at a density of 15k cells per well into a 96-well plate for at least 4 hours. Cells were treated with antiestrogens for 3 days and plates were subsequently frozen at −80° C. […] AP activity was normalized to the activity of E2 alone.

ERα [2] = target: T1, ERα (Homo sapiens (Human), UniProt P03372); assay: ERα levels in breast cells, in-cell western (Colorimetric In-Cell ELISA); assay type: cell-based
Description: IC50's were calculated using the least squares fit method. Error bars represent S.E.M from triplicate wells.
Target sequence in this assay (P03372 whole entry): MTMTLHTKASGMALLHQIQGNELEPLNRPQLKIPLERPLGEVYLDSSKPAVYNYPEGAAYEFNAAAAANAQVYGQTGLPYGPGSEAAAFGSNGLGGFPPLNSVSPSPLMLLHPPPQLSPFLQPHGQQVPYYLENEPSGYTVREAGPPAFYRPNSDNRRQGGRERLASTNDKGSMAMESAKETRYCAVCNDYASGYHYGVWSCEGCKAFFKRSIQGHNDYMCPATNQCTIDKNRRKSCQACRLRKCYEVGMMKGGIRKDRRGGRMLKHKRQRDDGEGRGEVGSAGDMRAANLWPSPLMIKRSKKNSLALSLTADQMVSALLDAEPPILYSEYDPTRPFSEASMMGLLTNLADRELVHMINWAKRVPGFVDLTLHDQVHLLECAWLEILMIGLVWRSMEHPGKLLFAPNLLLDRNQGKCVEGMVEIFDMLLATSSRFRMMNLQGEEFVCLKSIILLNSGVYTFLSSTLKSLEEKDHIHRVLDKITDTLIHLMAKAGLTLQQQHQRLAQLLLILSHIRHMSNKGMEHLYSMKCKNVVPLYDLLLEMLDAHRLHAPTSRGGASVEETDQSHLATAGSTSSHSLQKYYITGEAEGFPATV

ERα [3] = target: T1, ERα; assay: ERα binding, LanthaScreen Competitive Binding Assay (TR-FRET)
Text: Compounds were screened for their ability to displace a fluorescent labelled tracer ERα ligand via time resolved fluorescent energy transfer using the LanthaScreen Competitive Binding Assay screening service (Thermo Fisher Scientific).
Target sequence in this assay (P03372 whole entry, looked up): as the sequence (P03372 whole entry) above

[4] = Pharmacokinetics in mice after oral gavage; assay type: in vivo, BALB/c female mice; conditions: 5 mg/kg oral gavage; for Oral drug exposure, free fraction taken into account: mice, 0-24 hours
Description: Pharmacokinetics were studied in BALB/c female mice. For each arm, three BALB/c female mice were given 5 mg/kg of compound in 0.5% CMC formulation by oral gavage. Concentration of compounds in mouse plasma and their metabolites were analyzed at each time point using LC-MS/MS. The concentrations were adjusted for the free fraction of drug in mouse plasma (method below). Area under the curve was calculated using the trapezoidal rule for 0-24 hours.

ERα [5] = target: T1, ERα; assay: ER degradation, immunoblot of MCF-7 protein extracts; assay type: cell-based; conditions: 100 nM, 24 hours
Description: MCF-7 cells were treated with 100 nM anti-estrogen for 24 hours in serum-free medium and protein extracts immunoblotted with D12 antibody to ERα and β-actin (Santa Cruz Biotechnology). The numbers below the blots represent the optical density of ERα bands of each treatment relative to percent vehicle after normalization to β-actin.
Target sequence in this assay (P03372 whole entry): as above

[6] = test system: Clone 18 cells (MCF7/Her2/neu); assay: Xenograft study, MCF7/Her2/neu tumors in mice; assay type: in vivo, athymic ovariectomized nu/nu mice; conditions: oral gavage, doses as low as 10 mg/kg
Description: Xenograft studies were conducted by the Preclinical Therapeutics Core at the University of California, San Francisco in accordance with the Institutional Animal Care and Use Committee (IACUC) guidelines. Clone 18 cells (MCF7/Her2/neu) cells were grown in culture and implanted into athymic ovariectomized nu/nu mice. To stimulate tumor growth 0.36 mg estradiol 90 day release pellets (Innovative Research, Saratoga, FL) were implanted along with cells. When tumors reached 150-250 cubic millimeters the pellets were exchanged for 0.18 mg estradiol 90 day release pellets and divided into groups of six mice per treatment group. One of those groups received vehicle only (0.5% CMC+8% DMSO), and Compound B and Compound C each had 2 groups treated with either 10 or 100 mg/kg compound. Compounds were administered by oral gavage twice daily, except once daily on weekends/holidays for the first 21 days, and once daily after day 21. Tumors and bodyweight were measured twice weekly.

[7] = test system: AP activity in ECC-1 cells; assay: Alkaline phosphatase (AP) assay in ECC-1 uterine cells, agonist mode; assay type: cell-based, human; conditions: for AP Agonist Act. (% of E2): ECC-1 cells, without E2; for Induction of Alkaline Phosphatase (AP) % E2: mean of n experiments; for Induction of AP activity in uterine cells (% E2): representative result
Description: Method for performing the alkaline phosphatase (AP) assay. ECC-1 cells were trypsinized and resuspended in hormone-depleted media and plated at a density of 15k cells per well into a 96-well plate for at least 4 hours. Cells were treated with antiestrogens for 3 days and plates were subsequently frozen at −80° C. Thawed plates were incubated with a chromogenic substrate of AP, p-nitrophenyl phosphate (Thermo Fisher Scientific), for 40 minutes at 40° C. and absorbances were read at 405 nm. AP activity was normalized to the activity of E2 alone. […] A representative result for induction of AP activity in uterine cells (% E2) is shown below in tabular form: […]

[8] = test system: estrogen-responsive reporter gene, ERE-tk109-Luc; assay: Inhibition of E2-induced transcription, ERE-tk109-Luc reporter in MCF-7 cells; assay type: cell-based; conditions: Homo sapiens, MCF7; read-out: Inhibition of E2-induced transcription in breast cells, IC50
Description: Representative compounds were tested for their inhibitory activity of estrogen according to the assay methods described in Hodges-Gallagher, L., Valentine, C. V., El Bader, S. and Kushner, P. J. (2007) “Histone Deacetylase Inhibitors Enhance the Efficacy of Hormonal Therapy Agents on Breast Cancer Cells and Blocks Anti-estrogen-Driven Uterine Cell Proliferation” Breast Cancer Res Treat, November; 105(3):297-309. Specifically, MCF-7 cells were transiently transfected with an estrogen-responsive reporter gene, ERE-tk109-Luc. Transfected cells were treated with antiestrogens in hormone-depleted medium in the presence of 100 pM 17β-estradiol (E2) for 22 hours. Luciferase activity was normalized to activity of E2 alone and IC50's were calculated using the least squares fit method.
A representative result for inhibition of E2-induced transcription in breast cells (nM) is shown below in tabular form: […]

PR = conditions: De Savi; cited from earlier work
[9] = 100 nM dose, mean of n experiments

Compound | Residual AP activity with 100 nM compound plus E2 (% of E2 alone) ([1]; 100 nM antiestrogen, 500 pM E2) [% E2] | Residual AP activity with 100 nM compound plus E2 (% of E2 alone) [1, 9] [% E2] | AP Antagonist Act. (% of E2) [1] | AP Agonist Act. (% of E2) [7] | Induction of Alkaline Phosphatase (AP) % E2 [7] [% E2] | Induction of AP activity in uterine cells (% E2) [7] [% E2] | also measured
CCCN1CC(Oc2ccc([C@@H]3c4[nH]c5ccccc5c4C[C@@H](C)N3CC(C)(C)F)cc2)C1 [Compound B, (1R,3R)-2-(2-fluoro-2-methylpropyl)-3-methyl-1-(4-((1-propylazetidin-3-yl)oxy)phenyl)-2,3,4,9-tetrahydro-1H-pyrido[3,4-b]indole] | 1.96 | 1.56 | 1.96 % of E2 | 2.18 % of E2 | 1.78 | 2.18 | AP activity of ECC-1 cells co-treated with 500 pM 17β-estradiol, % of the activity 17β-estradiol would produce ([1]; co-treated with 500 pM 17β-estradiol): 1.96%; Relative change in ERα levels in breast cells % Veh (ERα [2]): 45 % Veh; Relative change in ERα levels in breast cells pIC50 (ERα [2]): 8.57; Estrogen receptor degradation in MCF-7 cells (in-cell western, FIG. 2) (ERα [2]; 24 hours): degrades the estrogen receptor; ERα binding activity in words (ERα [3]): comparable activity to fulvestrant, Goodacre Compound 102, and Goodacre Compound 107; ERα binding pIC50 (ERα [3]): 8.57; Oral bioavailability and half-life ([4]; BALB/c mice): high oral bioavailability and half-life; Oral drug exposure, free fraction taken into account [4]: better 24 hour drug exposure compared to other compounds; also recorded: substantially higher oral drug exposure; Estrogen receptor degradation in MCF-7 cells (immunoblot, FIG. 7) (ERα [5]): degrades the estrogen receptor; Effect on tumor size in xenografted mice [6]: shrinks MCF-7 (HER2/neu) tumors; also recorded: outstandingly potent in shrinking human breast cancer xenografts; AP activity of ECC-1 cells normalized to the effect of 500 pM 17β-estradiol ([7]; compound alone): 2.18%
C[C@@H]1Cc2c([nH]c3ccccc23)[C@@H](c2ccc(OCCN3CC(CF)C3)cc2)N1CC(C)(C)F [Compound C, (1R,3R)-2-(2-fluoro-2-methylpropyl)-1-(4-(2-(3-(fluoromethyl)azetidin-1-yl)ethoxy)phenyl)-3-methyl-2,3,4,9-tetrahydro-1H-pyrido[3,4-b]indole] | 2.5 | 1.76 | 2.5 % of E2 | 3.1 % of E2 | 1.71 | 3.1 | Relative change in ERα levels in breast cells % Veh (ERα [2]): 42 % Veh; Relative change in ERα levels in breast cells pIC50 (ERα [2]): 8.87; ERα binding activity in words (ERα [3]): comparable activity to fulvestrant, Goodacre Compound 102, and Goodacre Compound 107; Oral drug exposure, free fraction taken into account [4]: substantially higher oral drug exposure; Effect on tumor size in xenografted mice [6]: outstandingly potent in shrinking human breast cancer xenografts
C[C@]12CC[C@@H]3c4ccc(O)cc4C[C@@H](CCCCCCCCC[S+]([O-])CCCC(F)(F)C(F)(F)F)[C@H]3[C@@H]1CC[C@@H]2O (stereo partly shown) [Fulvestrant, reference compound] | −2.2 | −0.09 |  |  | −0.04 | −0.13 | 
C[C@@H]1Cc2c([nH]c3ccccc23)[C@@H](c2c(F)cc(/C=C/C(=O)O)cc2F)N1CC(C)(C)F [AZD9496, (E)-3-(3,5-Difluoro-4-((1R,3R)-2-(2-fluoro-2-methylpropyl)-3-methyl-2,3,4,9-tetrahydro-1H-pyrido[3,4-b]indol-1-yl)phenyl)acrylic Acid] |  |  |  | 35 % of E2 | 39 | 35 | IC50 [8]: 1.3 nM; Estrogen-like activity as AP agonist and antagonist in comparison to Compounds A-D ([7]; AP agonist and antagonist modes): approximately 10 fold
C[C@@H]1Cc2c([nH]c3ccccc23)[C@@H](c2c(F)cc(OCCN3CC(CF)C3)cc2F)N1CC(C)(C)F [Compound D, (1R,3R)-1-(2,6-difluoro-4-(2-(3-(fluoromethyl)azetidin-1-yl)ethoxy)phenyl)-2-(2-fluoro-2-methylpropyl)-3-methyl-2,3,4,9-tetrahydro-1H-pyrido[3,4-b]indole, reference compound] | 4.07 | 3.98 | 4.07 % of E2 | 3.37 % of E2 | 4.45 | 3.37 | 
C[C@@H]1Cc2c([nH]c3ccccc23)[C@@H](c2ccc(/C=C/C(=O)O)cc2)N1CC(C)(C)F [WO 2014/191726 Example 2] |  |  |  |  |  |  | PR agonist pIC50 (PR): <5.5
CCCN1CC(Oc2ccc([C@@H]3c4[nH]c5ccccc5c4C[C@@H](C)N3CC(C)(C)F)cc2F)C1 [Compound A, (1R,3R)-2-(2-fluoro-2-methylpropyl)-1-(3-fluoro-4-((1-propylazetidin-3-yl)oxy)phenyl)-3-methyl-2,3,4,9-tetrahydro-1H-pyrido[3,4-b]indole] | 3.15 |  | 3.15 % of E2 | 3.96 % of E2 |  | 3.96 | 
Oc1ccc2c(c1)CC[C@H](c1ccccc1)[C@@H]2c1ccc(OCCN2CCCC2)cc1 [Lasofoxifene, reference compound] | 83 |  |  |  |  | 86 | 
CCCN1CC(Oc2cc(F)c([C@@H]3c4[nH]c5ccccc5c4C[C@@H](C)N3CC(C)(C)F)c(F)c2)C1 [Goodacre Compound 107, (1R,3R)-1-(2,6-difluoro-4-((1-propylazetidin-3-yl)oxy)phenyl)-2-(2-fluoro-2-methylpropyl)-3-methyl-2,3,4,9-tetrahydro-1H-pyrido[3,4-b]indole, reference compound] |  | 1.03 |  |  | 0.00 |  | 
